The text below walks through data of ChEMBL document CHEMBL3627608, “Crystal structures of human RIP2 kinase catalytic domain complexed with ATP-competitive inhibitors: Foundations for understanding inhibitor selectivity” (Bioorg Med Chem, 2015).

The target in assay [1] is T1, Tyrosine-protein kinase Mer (Homo sapiens) (UniProt Q12866).
T1 sequence (whole entry): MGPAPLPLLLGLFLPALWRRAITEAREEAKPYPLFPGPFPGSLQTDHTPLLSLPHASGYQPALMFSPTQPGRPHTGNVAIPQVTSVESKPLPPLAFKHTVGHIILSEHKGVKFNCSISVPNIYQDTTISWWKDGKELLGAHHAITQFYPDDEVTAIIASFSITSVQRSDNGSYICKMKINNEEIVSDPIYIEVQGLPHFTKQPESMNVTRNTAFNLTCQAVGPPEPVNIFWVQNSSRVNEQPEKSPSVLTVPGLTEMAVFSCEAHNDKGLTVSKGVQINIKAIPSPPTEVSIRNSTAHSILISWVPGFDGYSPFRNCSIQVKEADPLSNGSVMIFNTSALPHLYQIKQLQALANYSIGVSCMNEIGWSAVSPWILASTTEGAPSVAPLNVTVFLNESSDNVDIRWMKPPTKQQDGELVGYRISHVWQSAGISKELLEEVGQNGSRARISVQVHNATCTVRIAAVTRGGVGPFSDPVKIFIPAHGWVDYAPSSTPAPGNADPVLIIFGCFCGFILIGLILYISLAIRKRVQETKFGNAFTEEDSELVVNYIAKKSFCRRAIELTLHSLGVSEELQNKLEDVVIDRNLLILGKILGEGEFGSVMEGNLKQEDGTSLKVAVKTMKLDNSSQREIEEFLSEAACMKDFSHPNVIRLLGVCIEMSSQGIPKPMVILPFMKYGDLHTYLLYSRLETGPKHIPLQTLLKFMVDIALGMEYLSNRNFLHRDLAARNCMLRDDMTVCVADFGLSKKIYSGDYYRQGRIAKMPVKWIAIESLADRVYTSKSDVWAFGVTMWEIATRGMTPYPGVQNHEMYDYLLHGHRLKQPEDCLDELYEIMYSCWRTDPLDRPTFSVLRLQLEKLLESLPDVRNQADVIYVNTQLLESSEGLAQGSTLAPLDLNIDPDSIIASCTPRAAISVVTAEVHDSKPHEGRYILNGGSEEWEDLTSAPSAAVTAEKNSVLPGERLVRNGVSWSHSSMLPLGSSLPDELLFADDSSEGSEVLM
Kind of assay: Inhibition of c-MER (unknown origin) at 10 uM after 120 mins P33 radiolabeled kinase activity assay.

Assay [2] addresses Receptor-interacting serine/threonine-protein kinase 2 (Homo sapiens, UniProt O43353). Kind of assay: Inhibition of full-length FLAG-6His-TEV tagged human RIP2 expressed in Sf9 cells assessed as dissociation rate by fluorescent polarization assay.
Assay [3] addresses Serine/threonine-protein kinase NIM1 (Homo sapiens) (UniProt Q8IY84). The assay can be described thus: Inhibition of NIM1 (unknown origin) at 10 uM after 120 mins P33 radiolabeled kinase activity assay.
In assay [4] the target is Tyrosine-protein kinase Fer (Homo sapiens) (UniProt P16591). Kind of assay: Inhibition of FER (unknown origin) at 10 uM after 120 mins P33 radiolabeled kinase activity assay.
The target in assay [5] is Casein kinase I isoform epsilon (Homo sapiens) (UniProt P49674). Kind of assay: Inhibition of CK1epsilon (unknown origin) at 10 uM after 120 mins P33 radiolabeled kinase activity assay.
The target in assay [6] is T2, Serine/threonine-protein kinase NLK (Homo sapiens) (UniProt Q9UBE8).
T2 sequence (whole entry): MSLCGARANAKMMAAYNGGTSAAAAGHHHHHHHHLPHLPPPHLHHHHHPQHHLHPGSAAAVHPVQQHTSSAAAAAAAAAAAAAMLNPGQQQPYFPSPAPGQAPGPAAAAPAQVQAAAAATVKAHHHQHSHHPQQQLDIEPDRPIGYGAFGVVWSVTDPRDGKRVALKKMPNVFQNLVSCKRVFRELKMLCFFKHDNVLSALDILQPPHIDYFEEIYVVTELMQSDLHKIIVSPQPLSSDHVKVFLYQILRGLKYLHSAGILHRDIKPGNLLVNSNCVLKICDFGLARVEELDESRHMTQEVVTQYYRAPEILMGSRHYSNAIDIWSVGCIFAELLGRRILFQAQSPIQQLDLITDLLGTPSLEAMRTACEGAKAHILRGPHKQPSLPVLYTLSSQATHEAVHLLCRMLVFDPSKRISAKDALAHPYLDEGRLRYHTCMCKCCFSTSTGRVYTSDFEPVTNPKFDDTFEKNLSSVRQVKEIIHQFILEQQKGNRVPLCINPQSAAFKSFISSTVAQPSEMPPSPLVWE
Kind of assay: Inhibition of NLK (unknown origin) at 10 uM after 120 mins P33 radiolabeled kinase activity assay.

In assay [7] the target is T3, Serine/threonine-protein kinase Nek5 (Homo sapiens) (UniProt Q6P3R8).
T3 sequence (whole entry): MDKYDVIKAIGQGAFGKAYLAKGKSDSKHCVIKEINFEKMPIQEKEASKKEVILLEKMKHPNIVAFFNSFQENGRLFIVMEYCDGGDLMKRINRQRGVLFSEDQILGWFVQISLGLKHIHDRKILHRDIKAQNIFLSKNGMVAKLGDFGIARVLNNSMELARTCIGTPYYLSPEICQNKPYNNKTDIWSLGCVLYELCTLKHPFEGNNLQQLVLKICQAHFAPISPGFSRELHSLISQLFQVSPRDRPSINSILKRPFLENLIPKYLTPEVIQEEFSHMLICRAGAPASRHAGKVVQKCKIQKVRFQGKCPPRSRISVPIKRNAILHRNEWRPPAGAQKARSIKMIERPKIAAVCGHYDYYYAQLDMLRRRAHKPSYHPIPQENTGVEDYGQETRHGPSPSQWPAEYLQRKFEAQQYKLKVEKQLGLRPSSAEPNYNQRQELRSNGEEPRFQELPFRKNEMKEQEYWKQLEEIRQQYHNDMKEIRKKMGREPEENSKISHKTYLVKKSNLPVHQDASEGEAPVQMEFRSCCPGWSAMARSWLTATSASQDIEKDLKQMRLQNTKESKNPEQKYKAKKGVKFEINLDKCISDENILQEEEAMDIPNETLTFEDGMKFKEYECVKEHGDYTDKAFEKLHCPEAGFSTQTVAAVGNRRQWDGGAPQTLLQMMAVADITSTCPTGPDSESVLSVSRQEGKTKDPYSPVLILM
The assay can be described thus: Inhibition of NEK5 (unknown origin) at 10 uM after 120 mins P33 radiolabeled kinase activity assay.

The target in assay [8] is T4, Mitogen-activated protein kinase 12 (Homo sapiens) (UniProt P53778).
T4 sequence (whole entry): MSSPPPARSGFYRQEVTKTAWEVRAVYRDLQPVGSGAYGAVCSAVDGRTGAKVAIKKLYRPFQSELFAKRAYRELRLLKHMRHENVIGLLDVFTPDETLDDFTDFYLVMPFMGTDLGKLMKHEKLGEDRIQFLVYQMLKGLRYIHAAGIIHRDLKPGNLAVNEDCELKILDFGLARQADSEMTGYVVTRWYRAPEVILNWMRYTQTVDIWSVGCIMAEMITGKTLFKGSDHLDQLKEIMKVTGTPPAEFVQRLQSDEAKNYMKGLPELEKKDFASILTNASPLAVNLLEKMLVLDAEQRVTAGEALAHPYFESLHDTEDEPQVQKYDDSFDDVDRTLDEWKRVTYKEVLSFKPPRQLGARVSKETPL
Kind of assay: Inhibition of P38gamma (unknown origin) at 10 uM after 120 mins P33 radiolabeled kinase activity assay.

Receptor-interacting serine/threonine-protein kinase 2, sequence (O43353 whole entry): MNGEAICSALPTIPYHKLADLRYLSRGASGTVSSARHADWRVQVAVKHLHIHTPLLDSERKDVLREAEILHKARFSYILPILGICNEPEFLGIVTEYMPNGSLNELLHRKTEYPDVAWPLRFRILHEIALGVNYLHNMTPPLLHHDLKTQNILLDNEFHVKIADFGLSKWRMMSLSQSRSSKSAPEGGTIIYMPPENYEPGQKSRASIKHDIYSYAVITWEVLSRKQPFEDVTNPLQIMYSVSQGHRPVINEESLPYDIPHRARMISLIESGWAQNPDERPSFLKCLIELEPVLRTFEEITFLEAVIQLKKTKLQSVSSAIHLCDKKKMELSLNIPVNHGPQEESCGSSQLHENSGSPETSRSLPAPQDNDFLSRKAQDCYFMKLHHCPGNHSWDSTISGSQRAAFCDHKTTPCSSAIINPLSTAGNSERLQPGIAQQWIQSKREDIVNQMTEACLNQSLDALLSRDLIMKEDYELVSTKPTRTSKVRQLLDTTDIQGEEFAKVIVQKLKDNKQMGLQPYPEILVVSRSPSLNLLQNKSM
Casein kinase I isoform epsilon (Homo sapiens), sequence (P49674 whole entry, looked up, canonical isoform): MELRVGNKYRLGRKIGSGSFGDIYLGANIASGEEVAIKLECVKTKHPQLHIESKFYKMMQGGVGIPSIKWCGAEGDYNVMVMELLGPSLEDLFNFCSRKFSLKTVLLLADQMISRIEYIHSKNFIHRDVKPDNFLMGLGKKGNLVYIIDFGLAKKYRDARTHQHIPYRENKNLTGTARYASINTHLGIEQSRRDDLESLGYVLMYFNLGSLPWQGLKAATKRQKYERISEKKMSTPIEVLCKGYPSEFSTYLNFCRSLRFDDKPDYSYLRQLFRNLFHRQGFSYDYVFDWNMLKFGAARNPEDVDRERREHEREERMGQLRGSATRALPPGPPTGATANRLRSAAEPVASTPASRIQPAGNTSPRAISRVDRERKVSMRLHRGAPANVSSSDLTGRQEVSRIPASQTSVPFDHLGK
Tyrosine-protein kinase Fer (Homo sapiens), sequence (P16591 whole entry, looked up, canonical isoform): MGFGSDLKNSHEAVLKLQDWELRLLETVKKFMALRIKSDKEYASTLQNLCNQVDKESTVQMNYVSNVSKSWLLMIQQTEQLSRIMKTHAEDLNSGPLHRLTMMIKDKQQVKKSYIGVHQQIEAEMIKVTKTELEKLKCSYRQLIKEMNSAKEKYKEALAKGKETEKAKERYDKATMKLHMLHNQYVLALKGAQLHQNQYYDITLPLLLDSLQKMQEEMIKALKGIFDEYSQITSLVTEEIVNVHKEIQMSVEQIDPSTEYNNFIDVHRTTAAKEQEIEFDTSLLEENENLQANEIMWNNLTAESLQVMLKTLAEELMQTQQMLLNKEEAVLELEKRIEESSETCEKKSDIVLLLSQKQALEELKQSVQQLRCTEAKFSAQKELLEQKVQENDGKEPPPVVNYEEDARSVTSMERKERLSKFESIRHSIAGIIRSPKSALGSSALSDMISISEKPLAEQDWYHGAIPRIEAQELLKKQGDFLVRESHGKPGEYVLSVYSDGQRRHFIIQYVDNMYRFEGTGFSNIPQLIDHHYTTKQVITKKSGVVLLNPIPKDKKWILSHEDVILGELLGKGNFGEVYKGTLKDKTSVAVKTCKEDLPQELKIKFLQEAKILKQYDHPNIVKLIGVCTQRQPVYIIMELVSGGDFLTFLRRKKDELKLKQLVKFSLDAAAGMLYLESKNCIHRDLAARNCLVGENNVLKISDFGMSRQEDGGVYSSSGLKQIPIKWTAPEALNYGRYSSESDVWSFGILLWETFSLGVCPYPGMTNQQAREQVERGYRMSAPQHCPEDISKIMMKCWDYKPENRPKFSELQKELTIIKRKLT
Serine/threonine-protein kinase NIM1 (Homo sapiens), sequence (Q8IY84 whole entry): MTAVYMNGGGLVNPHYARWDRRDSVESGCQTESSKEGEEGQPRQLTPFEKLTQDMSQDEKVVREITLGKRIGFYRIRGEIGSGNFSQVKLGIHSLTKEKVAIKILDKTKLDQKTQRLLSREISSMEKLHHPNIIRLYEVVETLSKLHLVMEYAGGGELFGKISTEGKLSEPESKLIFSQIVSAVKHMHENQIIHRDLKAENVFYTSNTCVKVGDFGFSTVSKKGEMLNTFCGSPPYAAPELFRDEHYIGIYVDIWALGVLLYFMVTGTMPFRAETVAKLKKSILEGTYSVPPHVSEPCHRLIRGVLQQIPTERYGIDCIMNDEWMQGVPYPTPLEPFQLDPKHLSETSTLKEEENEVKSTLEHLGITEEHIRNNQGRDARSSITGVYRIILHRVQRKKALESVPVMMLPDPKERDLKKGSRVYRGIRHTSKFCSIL

With `CS(=O)(=O)c1cccc(Nc2nccc(-c3sc(N4CCOCC4)nc3-c3cccc(NS(=O)(=O)c4c(F)cccc4F)c3)n2)c1`, the inhibition was found to be 98.2% in assay [1]; 5.74% in assay [3]; 65.2% in assay [4]; 36.8% in assay [5]; 88.6% in assay [6]; 50.5% in assay [7]. Also, the inhibition in assay [8] was 7.45%. For the same compound, the K in assay [2] was found to be 0.000147 s⁻¹.

For the compound `CC(C)(C)c1cc(NC(=O)Nc2ccc(Oc3ccncc3)cc2)no1`, the inhibition in assay [1] is 77.9%; in assay [3], 4.76%; in assay [4], 19.9%; in assay [5] it was 5.92%; in assay [6] it was 51.5%; in assay [7], 27.3%. In addition, the inhibition in assay [8] amounted to 97.4%. Further, the K in assay [2] worked out at 0.000135 s⁻¹.

For the compound `COCCNC(=O)c1ccc2c(c1)nc(-c1cnc(-c3ccc(Cl)cc3)[nH]1)n2CCOC`, the inhibition in assay [1] turned out to be 30.8%; in assay [3], 3.72%; in assay [4] it was 0.68%; in assay [5] it was 44.4%; in assay [6], 55.2%; in assay [7] it was 9.53%. Besides, the inhibition in assay [8] was -3.25%. The K in assay [2] is 0.12 s⁻¹.

The inhibition is the relative decrease from the control value, in per cent.
